Results as given in ChEMBL document CHEMBL5576037, “Discovery of the first ataxia telangiectasia and Rad3-related (ATR) degraders for cancer treatment” (Eur J Med Chem, 2024).
Activity calls are given as the source filed them. The calls are words filed in the database; no cut-off is given here.

What was measured:
[1] = target: T1, ATPase family gene 2 protein homolog B (Homo sapiens) (UniProt Q9BVQ7); assay: Induction of SPATA5L1 degradation in human LoVo cells at 1 uM incubated for 24 hrs by global proteomic profiling analysis; assay type: cell-based
T1 sequence (whole entry): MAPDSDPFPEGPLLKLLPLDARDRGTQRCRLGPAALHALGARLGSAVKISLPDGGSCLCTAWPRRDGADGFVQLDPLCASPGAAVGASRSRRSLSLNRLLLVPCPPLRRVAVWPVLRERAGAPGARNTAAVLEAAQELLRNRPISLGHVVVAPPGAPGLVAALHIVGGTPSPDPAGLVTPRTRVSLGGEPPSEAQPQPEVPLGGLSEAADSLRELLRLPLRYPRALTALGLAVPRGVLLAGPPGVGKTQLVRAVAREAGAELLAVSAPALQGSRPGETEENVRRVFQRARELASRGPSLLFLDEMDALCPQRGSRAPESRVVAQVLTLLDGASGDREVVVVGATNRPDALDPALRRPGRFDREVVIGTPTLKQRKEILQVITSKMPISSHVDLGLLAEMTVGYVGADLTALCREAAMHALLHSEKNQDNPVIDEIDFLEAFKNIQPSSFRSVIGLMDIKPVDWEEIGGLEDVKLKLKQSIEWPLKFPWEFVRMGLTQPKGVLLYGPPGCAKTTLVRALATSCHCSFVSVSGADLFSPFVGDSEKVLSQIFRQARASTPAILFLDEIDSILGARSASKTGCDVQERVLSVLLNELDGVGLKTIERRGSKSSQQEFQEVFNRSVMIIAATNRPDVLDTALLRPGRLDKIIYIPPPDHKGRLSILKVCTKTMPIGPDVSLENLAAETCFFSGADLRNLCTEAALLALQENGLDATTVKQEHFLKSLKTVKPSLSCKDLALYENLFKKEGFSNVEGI

[2] = target: T2, Serine/threonine-protein kinase Chk1 (Homo sapiens) (UniProt O14757); assay: Induction of CHK1 degradation in human LoVo cells at 0.16 to 10 uM incubated for 72 hrs by Western blot analysis; assay type: cell-based; conditions: dose 0.16-10 µM
T2 sequence (whole entry): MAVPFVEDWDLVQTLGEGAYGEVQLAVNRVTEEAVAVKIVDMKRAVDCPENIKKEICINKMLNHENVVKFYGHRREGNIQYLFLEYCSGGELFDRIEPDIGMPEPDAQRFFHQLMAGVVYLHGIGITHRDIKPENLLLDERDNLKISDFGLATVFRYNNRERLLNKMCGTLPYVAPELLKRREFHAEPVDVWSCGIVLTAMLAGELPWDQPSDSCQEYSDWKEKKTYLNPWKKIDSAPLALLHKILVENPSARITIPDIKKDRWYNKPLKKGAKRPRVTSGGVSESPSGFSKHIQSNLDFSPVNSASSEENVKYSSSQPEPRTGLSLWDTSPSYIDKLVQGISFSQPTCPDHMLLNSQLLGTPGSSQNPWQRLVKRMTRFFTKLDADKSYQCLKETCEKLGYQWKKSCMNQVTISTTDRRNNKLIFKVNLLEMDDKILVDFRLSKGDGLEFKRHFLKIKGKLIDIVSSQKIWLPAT

[3] = Tmax in BALB/c nude mouse xenografted with human LoVo cells at 25 mg/kg, ip administered as single dose and measured after 12 hrs by LC-MS/MS analysis; assay type: ADME, organism-based; conditions: in vivo
[4] = target: Serine/threonine-protein kinase ATR (Homo sapiens, UniProt Q13535); assay: Inhibition of ATR (unknown origin)
Sequence of Serine/threonine-protein kinase ATR (Q13535 whole entry, looked up): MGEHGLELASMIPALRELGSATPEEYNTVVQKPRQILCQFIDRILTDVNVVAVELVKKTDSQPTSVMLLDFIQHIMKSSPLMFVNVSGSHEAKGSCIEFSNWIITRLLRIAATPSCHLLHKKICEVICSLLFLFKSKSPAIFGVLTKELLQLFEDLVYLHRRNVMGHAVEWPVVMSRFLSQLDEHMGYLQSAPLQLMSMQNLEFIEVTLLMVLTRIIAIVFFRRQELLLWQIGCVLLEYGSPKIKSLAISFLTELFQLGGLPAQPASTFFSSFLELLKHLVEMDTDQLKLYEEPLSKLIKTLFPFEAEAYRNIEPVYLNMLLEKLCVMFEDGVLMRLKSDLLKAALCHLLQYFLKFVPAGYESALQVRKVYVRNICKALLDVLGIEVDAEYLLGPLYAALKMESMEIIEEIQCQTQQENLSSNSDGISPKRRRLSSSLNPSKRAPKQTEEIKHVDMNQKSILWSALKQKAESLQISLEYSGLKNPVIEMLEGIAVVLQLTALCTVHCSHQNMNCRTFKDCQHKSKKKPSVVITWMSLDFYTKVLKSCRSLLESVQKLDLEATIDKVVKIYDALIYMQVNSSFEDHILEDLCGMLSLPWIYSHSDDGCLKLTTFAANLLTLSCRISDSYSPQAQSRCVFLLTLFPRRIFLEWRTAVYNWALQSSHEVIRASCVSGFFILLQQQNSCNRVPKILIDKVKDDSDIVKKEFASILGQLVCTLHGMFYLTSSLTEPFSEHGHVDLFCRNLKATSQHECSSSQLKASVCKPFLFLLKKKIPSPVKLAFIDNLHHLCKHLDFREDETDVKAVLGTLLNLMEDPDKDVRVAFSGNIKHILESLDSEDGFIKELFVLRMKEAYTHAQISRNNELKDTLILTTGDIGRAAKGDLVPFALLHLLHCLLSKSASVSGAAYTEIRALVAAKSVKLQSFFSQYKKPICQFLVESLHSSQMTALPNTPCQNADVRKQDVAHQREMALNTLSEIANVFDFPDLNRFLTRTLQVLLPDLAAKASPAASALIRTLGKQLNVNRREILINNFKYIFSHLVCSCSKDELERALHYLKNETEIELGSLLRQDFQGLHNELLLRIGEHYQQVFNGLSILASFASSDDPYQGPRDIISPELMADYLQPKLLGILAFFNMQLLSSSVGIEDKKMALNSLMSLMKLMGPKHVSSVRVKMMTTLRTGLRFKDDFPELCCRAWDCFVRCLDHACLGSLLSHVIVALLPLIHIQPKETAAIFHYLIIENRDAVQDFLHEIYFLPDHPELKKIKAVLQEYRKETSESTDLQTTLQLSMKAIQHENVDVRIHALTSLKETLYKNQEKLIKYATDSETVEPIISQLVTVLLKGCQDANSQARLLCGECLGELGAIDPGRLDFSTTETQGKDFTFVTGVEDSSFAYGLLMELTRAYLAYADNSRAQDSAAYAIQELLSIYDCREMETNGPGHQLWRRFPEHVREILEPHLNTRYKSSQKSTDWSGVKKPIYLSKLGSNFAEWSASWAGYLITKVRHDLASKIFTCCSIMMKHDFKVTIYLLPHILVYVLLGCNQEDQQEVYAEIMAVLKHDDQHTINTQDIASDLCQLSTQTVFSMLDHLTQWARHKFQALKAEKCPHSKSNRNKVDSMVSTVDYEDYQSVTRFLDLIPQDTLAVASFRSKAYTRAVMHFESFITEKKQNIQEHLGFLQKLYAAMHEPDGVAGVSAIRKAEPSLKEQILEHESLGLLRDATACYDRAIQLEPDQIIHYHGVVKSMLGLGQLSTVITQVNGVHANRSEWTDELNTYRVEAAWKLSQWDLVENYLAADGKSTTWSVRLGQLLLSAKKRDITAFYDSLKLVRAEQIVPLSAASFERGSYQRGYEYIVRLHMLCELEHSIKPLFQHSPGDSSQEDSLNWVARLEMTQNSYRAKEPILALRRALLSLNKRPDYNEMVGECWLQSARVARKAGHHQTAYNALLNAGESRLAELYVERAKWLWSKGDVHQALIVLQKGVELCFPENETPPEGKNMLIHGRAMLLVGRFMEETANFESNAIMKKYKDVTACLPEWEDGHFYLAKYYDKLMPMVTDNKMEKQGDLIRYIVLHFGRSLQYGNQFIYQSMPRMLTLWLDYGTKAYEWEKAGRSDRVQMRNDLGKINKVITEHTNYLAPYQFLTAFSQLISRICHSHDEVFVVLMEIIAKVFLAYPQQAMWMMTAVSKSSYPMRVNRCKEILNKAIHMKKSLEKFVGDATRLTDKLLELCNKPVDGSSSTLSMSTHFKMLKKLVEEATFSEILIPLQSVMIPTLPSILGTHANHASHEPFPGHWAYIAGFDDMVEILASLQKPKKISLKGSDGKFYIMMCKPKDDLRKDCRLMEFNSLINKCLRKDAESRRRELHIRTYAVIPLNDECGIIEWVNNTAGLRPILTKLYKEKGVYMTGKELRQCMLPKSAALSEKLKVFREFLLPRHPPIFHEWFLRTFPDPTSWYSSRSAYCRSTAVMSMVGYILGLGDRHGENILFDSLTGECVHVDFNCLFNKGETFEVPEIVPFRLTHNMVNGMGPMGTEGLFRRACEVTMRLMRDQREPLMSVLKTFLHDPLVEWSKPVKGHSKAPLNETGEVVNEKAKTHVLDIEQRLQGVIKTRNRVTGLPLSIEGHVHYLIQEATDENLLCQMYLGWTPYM

[5] = Toxicity in BALB/c nude mouse xenografted with human LoVo cells assessed as effect on spleen at 12.5 to 25 mg/kg, ip administered twice daily for 15 days by H and E staining based analysis; assay type: organism-based; conditions: in vivo, 360 h, dose 12.5-25 mg/kg, time 15 day
LoVo [6] = assay: Downregulation of total ATR protein level in human LoVo cells incubated for 72 hrs by Western blot analysis; assay type: functional, cell-based; conditions: dose 0.16-10 µM
LoVo [7] = assay: Induction of apoptosis in human LoVo cells assessed as apoptotic rate at 1 uM incubated for 48 hrs by Annexin V-FITC/PI staining based flow cytometric analysis (reference value: 5.32 %); assay type: functional
[8] = Toxicity in BALB/c nude mouse xenografted with human LoVo cells assessed as effect on heart at 12.5 to 25 mg/kg, ip administered twice daily for 15 days by H and E staining based analysis; assay type: organism-based; conditions: in vivo, 360 h, dose 12.5-25 mg/kg, time 15 day
[9] = Toxicity in BALB/c nude mouse xenografted with human LoVo cells assessed as effect on liver at 12.5 to 25 mg/kg, ip administered twice daily for 15 days by H and E staining based analysis; assay type: organism-based; conditions: in vivo, 360 h, dose 12.5-25 mg/kg, time 15 day
[10] = target: T3, Protein cereblon/Serine/threonine-protein kinase ATR (Homo sapiens, UniProt Q13535+Q96SW2); assay: In vivo PROTAC activity at CRBN/ATR in BALB/c nude mouse xenografted with human LoVo cells assessed as reduction in ATR protein level administered intraperitoneally once daily for 15 days by Western blot analysis; assay type: functional, organism-based; conditions: dose 12.5-25 mg/kg, route ip, time 15.0 day
Target sequence in this assay (Q13535 whole entry, looked up): as above
Target sequence in this assay (Q96SW2 whole entry, looked up): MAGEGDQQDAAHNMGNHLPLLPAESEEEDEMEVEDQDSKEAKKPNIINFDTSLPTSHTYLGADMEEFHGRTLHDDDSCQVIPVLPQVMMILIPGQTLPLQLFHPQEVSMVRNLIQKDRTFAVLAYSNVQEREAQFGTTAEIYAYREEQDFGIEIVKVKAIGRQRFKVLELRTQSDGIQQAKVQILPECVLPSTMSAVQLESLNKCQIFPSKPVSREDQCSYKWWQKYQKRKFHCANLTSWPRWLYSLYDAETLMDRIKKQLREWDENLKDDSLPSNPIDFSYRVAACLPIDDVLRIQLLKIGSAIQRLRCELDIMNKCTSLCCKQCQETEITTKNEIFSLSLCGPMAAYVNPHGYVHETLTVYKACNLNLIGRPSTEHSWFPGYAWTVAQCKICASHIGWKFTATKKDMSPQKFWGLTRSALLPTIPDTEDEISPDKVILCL

[11] = target: T3, Protein cereblon/Serine/threonine-protein kinase ATR; assay: PROTAC activity at CRBN/ATR in human LoVo cells assessed as induction of ATR degradation at 2.5 uM preincubated with AZD6738 for 4 hrs followed by compound addition and measured after 48 hrs by Western blot analysis; assay type: cell-based
Target sequence in this assay (Q13535 whole entry, looked up): as the sequence (Q13535 whole entry, looked up) above
Target sequence in this assay (Q96SW2 whole entry, looked up): as the sequence (Q96SW2 whole entry, looked up) above

[12] = target: T3, Protein cereblon/Serine/threonine-protein kinase ATR; assay: PROTAC activity at CRBN/ATR in human LoVo cells assessed as induction of ATR degradation measured after 72 hrs by Western blot analysis; assay type: cell-based
[13] = Half-life in BALB/c nude mouse xenografted with human LoVo cells at 25 mg/kg, ip administered as single dose and measured after 12 hrs by LC-MS/MS analysis; assay type: ADME, organism-based; conditions: in vivo
[14] = MRT (0 to t) in BALB/c nude mouse xenografted with human LoVo cells at 25 mg/kg, ip administered as single dose and measured after 12 hrs by LC-MS/MS analysis; assay type: ADME, organism-based; conditions: in vivo
LoVo [15] = assay: Synergistic antitumor activity against human LoVo cells xenografted in BALB/c nude mouse assessed as tumor growth inhibition at 12.5 mg/kg, ip administered once daily for 15 days in presence of cisplatin relative to control; assay type: functional; conditions: 360 h, time 15 day, read-out: TGI
LoVo [16] = assay: Antitumor activity against human LoVo cells xenografted in BALB/c nude mouse assessed as tumor growth inhibition at 12.5 mg/kg, ip administered […] for 15 days relative to control; assay type: functional; conditions: 360 h, time 15 day, read-out: TGI
[17] = target: Phosphatidylinositol 4,5-bisphosphate 3-kinase catalytic subunit alpha isoform (Homo sapiens) (UniProt P42336); assay: Induction of PI3K-alpha degradation in human LoVo cells at 0.16 to 10 uM incubated for 72 hrs by Western blot analysis; assay type: cell-based; conditions: dose 0.16-10 µM
Sequence of Phosphatidylinositol 4,5-bisphosphate 3-kinase catalytic subunit alpha isoform (Homo sapiens) (P42336 whole entry, canonical isoform): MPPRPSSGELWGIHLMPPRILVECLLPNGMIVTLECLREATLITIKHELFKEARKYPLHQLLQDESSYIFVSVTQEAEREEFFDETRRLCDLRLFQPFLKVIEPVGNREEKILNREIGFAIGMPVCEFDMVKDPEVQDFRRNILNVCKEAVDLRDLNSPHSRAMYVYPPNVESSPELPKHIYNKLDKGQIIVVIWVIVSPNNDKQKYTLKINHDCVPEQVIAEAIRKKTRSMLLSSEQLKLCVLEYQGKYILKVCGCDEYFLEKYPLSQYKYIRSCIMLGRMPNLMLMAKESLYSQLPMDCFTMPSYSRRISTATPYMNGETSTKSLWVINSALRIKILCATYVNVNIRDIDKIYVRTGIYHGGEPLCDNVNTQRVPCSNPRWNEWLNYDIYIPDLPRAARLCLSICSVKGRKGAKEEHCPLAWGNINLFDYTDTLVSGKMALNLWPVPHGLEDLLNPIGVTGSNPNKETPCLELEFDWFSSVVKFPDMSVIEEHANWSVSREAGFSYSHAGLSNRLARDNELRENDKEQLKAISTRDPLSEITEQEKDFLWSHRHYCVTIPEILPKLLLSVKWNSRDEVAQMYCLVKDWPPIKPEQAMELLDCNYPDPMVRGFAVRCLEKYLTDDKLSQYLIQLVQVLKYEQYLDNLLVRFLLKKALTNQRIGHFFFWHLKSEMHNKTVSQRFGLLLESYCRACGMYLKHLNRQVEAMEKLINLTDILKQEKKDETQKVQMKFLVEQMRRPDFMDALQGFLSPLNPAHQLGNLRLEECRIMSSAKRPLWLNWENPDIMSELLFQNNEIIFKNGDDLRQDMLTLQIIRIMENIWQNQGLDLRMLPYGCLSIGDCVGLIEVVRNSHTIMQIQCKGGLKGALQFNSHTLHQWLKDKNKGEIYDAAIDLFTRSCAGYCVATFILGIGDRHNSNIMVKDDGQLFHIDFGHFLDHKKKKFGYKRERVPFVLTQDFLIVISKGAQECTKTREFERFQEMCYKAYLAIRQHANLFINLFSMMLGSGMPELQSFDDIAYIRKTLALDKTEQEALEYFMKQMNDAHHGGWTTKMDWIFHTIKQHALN

LoVo [18] = assay: Antitumor activity against human LoVo cells xenografted in BALB/c nude mouse assessed as tumor growth inhibition at 25 mg/kg, ip administered […] for 15 days relative to control; assay type: functional; conditions: 360 h, time 15 day, read-out: TGI
[19] = MRT (0 to infinity) in BALB/c nude mouse xenografted with human LoVo cells at 25 mg/kg, ip administered as single dose and measured after 12 hrs by LC-MS/MS analysis; assay type: ADME, organism-based; conditions: in vivo
[20] = Toxicity in BALB/c nude mouse xenografted with human LoVo cells assessed as effect on lung at 12.5 to 25 mg/kg, ip administered twice daily for 15 days by H and E staining based analysis; assay type: organism-based; conditions: in vivo, 360 h, dose 12.5-25 mg/kg, time 15 day

## C[C@@H]1COCCN1c1cc(C2([S@@](C)(=O)=NC(=O)CCc3cn(CCCCCCCC(=O)Nc4cccc5c4C(=O)N(C4CCC(=O)NC4=O)C5=O)nn3)CC2)nc(-c2ccnc3[nH]ccc23)n1 (stereo partly specified)
[1]
  Activity: Active
[2]
  Activity: inactive
[3]
  Tmax: 2 h
[4]
  inhibition: Active
[5]
  Activity: Non-Toxic
LoVo [6]
  Activity: Dose-Dependent Effect
LoVo [7]
  Activity: 45.62%
[8]
  Activity: Non-Toxic
[9]
  Activity: Non-Toxic
[10]
  Activity: Dose-Dependent Effect
[11]
  Activity: inactive
[12]
  Activity: Dose-Dependent Effect
  DC50: 530 nM
[13]
  half-life: 4.75 h
[14]
  MRT last at 12 h: 4.21 h
LoVo [15]
  inhibition in vivo at 12.5 mg/kg: 60.6%
LoVo [16]
  inhibition in vivo at 12.5 mg/kg: 39.5%
[17]
  Activity: inactive
LoVo [18]
  inhibition in vivo at 25 mg/kg: 51.8%
[19]
  MRT inf: 4.65 h
[20]
  Activity: Non-Toxic
